Laboratory results reported in article PMC12348844, “Anti-Trypanosoma cruzi Potential of New Pyrazole-Imidazoline Derivatives” (Molecules, 2025).
Read-outs that look alike come from different tables or passages of the source.

Key:
[1] = system: T. cruzi cysteine protease; test: Cysteine protease activity in trypomastigote protein extract (Z-Phe-Arg-AMC); type: biochemical, Trypanosoma cruzi; details: 90 min, 37 °C, 33.3, 100 and 300 µM tested
Experimental: Total proteins from T. cruzi Dm28c-Luc were extracted using a lysis buffer [100 mM Tris-HCl pH 8.0, 150 mM NaCl, 10% glycerol, 0.5% Triton X-100]. The protein concentration was quantified using the Bradford assay, with bovine serum albumin (BSA) used to establish the standard curve. For the assessment of cysteine protease activity, 5 μg of the protein extract was incubated in an acetate buffer [10 mM sodium acetate, pH 5.0], supplemented with 1 mM dithiothreitol (DTT) in a final volume of 100 μL. The reaction used a fluorogenic peptide substrate, N-benzoyloxycarbonyl-L-phenylalanyl-L-arginine 7-amino-4-methylcoumarin (Z-FR-AMC), at a concentration of 60 μM. Incubation was conducted at 37 °C for 90 min, with relative fluorescence changes measured using a SpectraMax M2e spectrophotometer (Molecular Devices, Sunnyvale, CA, USA). Inhibition assays were performed using three concentrations (33.3, 100, and 300 µM) of the promising candidate and trans-epoxysuccinyl-L-leucylamido(4-guanidino)butane (E-64), each analyzed separately. A control was included using a low DMSO concentration (≤1%). Enzymatic activity was expressed in µmol/min/mg of protein, with residual activity presented as a percentage.

[2] = system: T. cruzi Dm28c-Luc trypomastigotes; test: Anti-T. cruzi in vitro assay, trypomastigotes (luminescence); type: cell-based; details: Trypanosoma cruzi, 24 h, mean ± SD
Experimental: (§1) The genetically modified Trypanosoma cruzi, clone Dm28c (TcI), expressing luciferase (Dm28c-Luc), was kindly provided by Dr. Cristina Henriques from Oswaldo Cruz Institute—Fiocruz. The parasites were maintained using Vero cell cultures in RPMI 1640 medium enriched with 10% FBS. At 4 days post-infection (dpi), the trypomastigotes released into the culture supernatant were harvested, subjected to centrifugation at 800× g for 20 min at 4 °C, and quantified with a Neubauer chamber. The isolated trypomastigotes were subsequently used for phenotypic screening, drug efficacy assessments employing a 3D cardiac model, washout experiments to evaluate reversibility, drug combination studies, and enzymatic assays.
Drug susceptibility assays were performed on T. cruzi Dm28c-Luc, a genetically engineered parasite expressing luciferase. The drug screening used both trypomastigotes and intracellular amastigotes. Trypomastigotes (1 × 10^6 parasites/well) were added to white 96-well plates with clear bottoms. […] The luminescence was measured using a Glomax Multi-Detection plate reader (Promega Corporation, Madison, WI, USA).

[3] = system: T. cruzi Dm28c-Luc intracellular amastigotes; test: Anti-T. cruzi in vitro assay, intracellular amastigotes in Vero cells (luminescence); type: cell-based, Trypanosoma cruzi; details: for SI (selectivity index = CC50/IC50): CC50 Vero cells / IC50 intracellular amastigotes
Experimental: as §1
To evaluate the effect of pyrazole-imidazoline derivatives against intracellular amastigotes, Vero cells (1.5 × 10^4 cells/well) were cultured in a white 96-well plate with a clear bottom and subsequently infected with T. cruzi Dm28c-Luc at a 10:1 parasite-to-host cell ratio for 24 h. […] Parasite viability was measured by luminescence following the addition of luciferin (300 µg/mL). Background measurements (non-infected cultures incubated with luciferin, as well as luciferin-only controls) were performed to ensure the signal specifically originates from viable parasites. The IC50 and IC90 values, denoting the concentrations that achieve 50% and 90% reductions in viable parasites, respectively, were calculated using GraphPad Prism 8.2.1 software. Additionally, the selectivity index (SI) was calculated as the cytotoxic concentration (CC50) ratio in mammalian cells to the IC50 against T. cruzi, providing insight into the therapeutic window. Potency against intracellular amastigotes was evaluated using the formula 6—Log10 (IC50).

[4] = Cytotoxicity assay, Vero cells (CellTiter-Glo); type: cell-based; details: African green monkey, mean ± SD
Experimental: Vero cells, obtained from the Rio de Janeiro Cell Bank (BCRT code 0245) and maintained through weekly subculturing with a dissociation solution containing 0.25% trypsin-EDTA, initiated once the monolayer reached an 80–100% confluence. Following harvesting, the cells were washed and resuspended in RPMI 1640 medium enriched with 10% fetal bovine serum (FBS). Cultures were maintained at 37 °C in a 5% CO2-humidified incubator. These cultures were used for drug screening assays and for producing culture-derived trypomastigotes of T. cruzi.
Cytotoxicity assays were performed using Vero cells, which were seeded at a density of 1.5 × 10^4 cells per well in white 96-well plates with clear bottoms. Following a 24 h adhesion period, the cultures were incubated at 37 °C in a 5% CO2 atmosphere. […] After 72 h of incubation, cell viability was assessed by adding CellTiter-Glo reagent (Promega Corporation, Madison, WI, USA), which induces cell lysis and reacts with the released ATP to produce luminescence. The resulting luminescence was measured using a Glomax Multi-Detection plate reader (Promega Corporation, Madison, WI, USA). The half-maximal inhibitory concentration (CC50) for cell viability was then calculated using GraphPad Prism software version 8.2.1.

[5] = Trypanosoma cruzi, Vero, 72 h, Dm28c-Luc in Vero cells, mean ± SD, read-out: Intracellular Amastigotes IC50
[6] = Trypanosoma cruzi, Vero, intracellular amastigotes, 6 − Log10(IC50), read-out: pIC50 (potency) (converted)
[7] = Trypanosoma cruzi, 72 h, Dm28c-Luc in Vero cells, mean ± SD

Row | SMILES | inhibition of cysteine protease activity [1] [%] | IC50 [2] [µM] | IC90 [2] [µM] | SI (selectivity index = CC50/IC50) [3] | IC50 [3, 5] [µM] | IC50 [3, 6] [µM] | IC90 [3, 7] [µM] | CC50 at 72 h [4] [µM] | IC50 ([3]; 72 h, Dm28c-Luc in Vero cells, mean ± SD, read-out: Intracellular Amastigotes IC50) [µM]
1 | CC(C)C[C@H](NC(=O)[C@H]1O[C@@H]1C(=O)O)C(=O)NCCCCN=C(N)N (relative stereo) [E-64, trans-epoxysuccinyl-L-leucylamido(4-guanidino)butane, reference compound] | 92.81 | – | – | – | – | – | – | – | –
2 | Nc1c(C2=NCCN2)cnn1-c1ccc(Cl)cc1Cl [1a, 5-amino-1-(2,4-dichlorophenyl)-4-(4,5-dihydro-1H-imidazol-2-yl)-1H-pyrazole] | – | > 100 | > 100 | >12.2 | 40.8 ± 3 | 75.9 | > 100 | > 500 | –
3 | Nc1c(C2=NCCN2)cnn1-c1cccc(F)c1 [1b, 5-amino-1-(3-fluorophenyl)-4-(4,5-dihydro-1H-imidazol-2-yl)-1H-pyrazole] | – | > 100 | > 100 | – | > 100 | > 100 | > 100 | > 500 | –
4 | Cc1ccc(-n2ncc(C3=NCCN3)c2N)cc1 [1c, 5-amino-1-(4-methylphenyl)-4-(4,5-dihydro-1H-imidazol-2-yl)-1H-pyrazole] | – | > 100 | > 100 | – | > 100 | > 100 | > 100 | > 500 | –
5 | Cc1ccc(-n2cc(C3=NCCN3)cn2)cc1 [1d, 1-(4-methylphenyl)-4-(4,5-dihydro-1H-imidazol-2-yl)-1H-pyrazole] | – | > 100 | > 100 | >14.7 | 33.9 ± 0.8 | 39.8 | > 100 | > 500 | –
6 | Cc1ccc(-n2ncc(C3=NCCN3)c2N)cc1Cl [1e, 5-amino-1-(3-chloro-4-methylphenyl)-4-(4,5-dihydro-1H-imidazol-2-yl)-1H-pyrazole] | – | 76.5 ± 10.3 | > 100 | >7.2 | 68.9 ± 8.1 | 79.4 | 96.6 ± 0.2 | > 500 | –
7 | Cc1cc(Cl)ccc1-n1ncc(C2=NCCN2)c1N [1f, 5-amino-1-(4-chloro-2-methylphenyl)-4-(4,5-dihydro-1H-imidazol-2-yl)-1H-pyrazole] | – | > 100 | > 100 | >6.5 | 76.1 ± 1.2 | 79.4 | > 100 | > 500 | –
8 | Cc1cccc(-n2ncc(C3=NCCN3)c2N)c1 [1g, 5-amino-1-(3-methylphenyl)-4-(4,5-dihydro-1H-imidazol-2-yl)-1H-pyrazole] | – | > 100 | > 100 | >6.3 | 78.9 ± 2.2 | 79.4 | > 100 | > 500 | –
9 | Cc1cccc(-n2cc(C3=NCCN3)cn2)c1 [1h, 1-(3-methylphenyl)-4-(4,5-dihydro-1H-imidazol-2-yl)-1H-pyrazole] | – | > 100 | > 100 | >19.1 | 26.1 ± 3.4 | 25.1 | 89.7 ± 7.4 | > 500 | 26.2 ± 3.4
10 | Nc1c(C2=NCCN2)cnn1-c1cccc(C(F)(F)F)c1 [1i, 5-amino-1-(3-trifluoromethylphenyl)-4-(4,5-dihydro-1H-imidazol-2-yl)-1H-pyrazole] | – | > 100 | > 100 | >9.6 | 51.9 ± 3.6 | 63.1 | > 100 | > 500 | –
11 | Nc1c(C2=NCCN2)cnn1-c1ccc(C(F)(F)F)cc1 [1j, 5-amino-1-(4-trifluoromethylphenyl)-4-(4,5-dihydro-1H-imidazol-2-yl)-1H-pyrazole] | – | > 100 | > 100 | >5.6 | 88.1 ± 0.2 | 100 | > 100 | > 500 | –
12 | Nc1c(C2=NCCN2)cnn1-c1cc(C(F)(F)F)cc(C(F)(F)F)c1 [1l, 5-amino-1-((3,5-ditrifluoromethyl)phenyl)-4-(4,5-dihydro-1H-imidazol-2-yl)-1H-pyrazole] | – | > 100 | > 100 | 16.7 | 27.7 ± 2 | 31.6 | 80.1 ± 11.4 | 464 ± 15.2 | –
13 | FC(F)(F)c1cc(-n2cc(C3=NCCN3)cn2)cc(C(F)(F)F)c1 [1m, 1-((3,5-ditrifluoromethyl)phenyl)-4-(4,5-dihydro-1H-imidazol-2-yl)-1H-pyrazole] | – | > 100 | > 100 | 3.5 | 32.4 ± 5.9 | 31.6 | 80.7 ± 0.4 | 114 ± 11.9 | –
